Laboratory results: ChEMBL document CHEMBL1201862, “PubChem BioAssay data set” (2004)
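Results reflect a 48-hour exposure of cells in 96-well plates to compound at five concentrations. GI50 = concentration required for 50% inhibition of growth.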 Active and inactive are the calls of the source. Rule as the data show it: active = GI50 up to about 1.1 µM and inactive = higher.

Legend:
Experiment in all cases: growth of human tumour cells (NCI), 48 h
[1] = test system: ACHN
[2] = test system: BT-549
[3] = test system: CAKI-1
[4] = test system: HCC 2998
[5] = test system: HCT-15
[6] = test system: HL-60
[7] = test system: HT-29
[8] = test system: MCF7
[9] = test system: MDA-N
[10] = test system: MOLT-4
[11] = test system: NCI-H23
[12] = test system: NCI-H460
[13] = test system: PC-3
[14] = test system: RPMI-8226
[15] = test system: RXF 393
[16] = test system: SF-268
[17] = test system: SK-MEL-5
[18] = test system: SR
[19] = test system: UACC-62
[20] = test system: UO-31

Row | Compound | GI50 [1] | GI50 [2] | GI50 [3] | GI50 [4] | GI50 [5] [µM] | GI50 [6] | GI50 [7] | GI50 [8] | GI50 [9] | GI50 [10] | GI50 [11] | GI50 [12] | GI50 [13] | GI50 [14] | GI50 [15] | GI50 [16] | GI50 [17] | GI50 [18] | GI50 [19] | GI50 [20]
1 | COc1ccc(C(=O)Cn2c(C(C)=O)nc3ccccc32)cc1 | 8.59 µM (inactive) | 8.45 µM (inactive) | 7.21 µM (inactive) | 29.9 µM (inactive) | 6.35 | 3.41 µM (inactive) | 23.4 µM (inactive) | 4.58 µM (inactive) | 10.7 µM (inactive) | 4.98 µM (inactive) | 13.2 µM (inactive) | 4.21 µM (inactive) | 6.98 µM (inactive) | 14.6 µM (inactive) | > 56.4 µM (inactive) | > 64.9 µM (inactive) | 4.15 µM (inactive) | 4.92 µM (inactive) | 6.89 µM (inactive) | 11.8 µM (inactive)
2 | CCOC(=O)N/N=C/C1=NN(C(=O)OCC)[S+]([O-])C1C (stereo not drawn) | > 100 µM (inactive) | > 100 µM (inactive) | > 100 µM (inactive) | > 100 µM (inactive) | > 100 | > 100 µM (inactive) | > 100 µM (inactive) | > 100 µM (inactive) | > 100 µM (inactive) | > 100 µM (inactive) | > 100 µM (inactive) | 96.8 µM (inactive) | > 100 µM (inactive) | > 100 µM (inactive) | > 100 µM (inactive) | > 100 µM (inactive) | > 100 µM (inactive) | > 100 µM (inactive) | > 100 µM (inactive) | > 100 µM (inactive)
3 | C=CCN(CCNS(=O)(=O)c1ccc(C)cc1)S(=O)(=O)c1ccc(C)cc1 | 13.6 µM (inactive) | 22.4 µM (inactive) | 87.9 µM (inactive) | > 69.5 µM (inactive) | > 55.5 | 21.9 µM (inactive) | 9.77 µM (inactive) | > 51.9 µM (inactive) | 46.3 µM (inactive) | > 45.7 µM (inactive) | > 50.1 µM (inactive) | 9.46 µM (inactive) | > 48 µM (inactive) | 24.6 µM (inactive) | > 67.6 µM (inactive) | 10.4 µM (inactive) | 6.17 µM (inactive) | > 100 µM (inactive) | 73.6 µM (inactive) | > 50.2 µM (inactive)
4 | CC(C)=CCCC(C)C1=C(O)C(=O)C(C)=CC1=O (stereo not drawn) | 1.88 µM (inactive) | 14.6 µM (inactive) | 5.89 µM (inactive) | 12.8 µM (inactive) | 2.23 | 0.332 µM (active) | 16.3 µM (inactive) | 5.74 µM (inactive) | 5.78 µM (inactive) | 1.8 µM (inactive) | 16.7 µM (inactive) | 27.7 µM (inactive) | 17.4 µM (inactive) | 0.838 µM (active) | 4.74 µM (inactive) | 20.2 µM (inactive) | 11.6 µM (inactive) | 1.29 µM (inactive) | 13.4 µM (inactive) | 7.82 µM (inactive)
5 | COc1ccc(C2N(c3ccc(C)c(N=C=O)c3)C(=O)N3C(c4ccc(OC)cc4)N(c4ccc(C)c(N=C=O)c4)C(=O)N23)cc1 (stereo not drawn) | > 100 µM (inactive) | > 100 µM (inactive) | > 100 µM (inactive) | > 100 µM (inactive) | > 100 | > 100 µM (inactive) | > 100 µM (inactive) | > 100 µM (inactive) | > 100 µM (inactive) | > 100 µM (inactive) | > 100 µM (inactive) | > 100 µM (inactive) | > 100 µM (inactive) | > 100 µM (inactive) | > 100 µM (inactive) | > 100 µM (inactive) | > 100 µM (inactive) | > 100 µM (inactive) |  | > 100 µM (inactive)
6 | COc1cc2c(c(OC)c1OC)-c1ccc(SC)c(=O)cc1C(NC(=O)c1ccccc1)CC2 (stereo not drawn) | < 0.01 µM (active) | 15.6 µM (inactive) | < 0.01 µM (active) | < 0.01 µM (active) | < 0.01 | < 0.01 µM (active) | < 0.01 µM (active) | < 0.01 µM (active) | < 0.01 µM (active) | < 0.01 µM (active) | 0.0107 µM (active) | < 0.01 µM (active) | < 0.01 µM (active) | < 0.01 µM (active) | 0.0444 µM (active) | < 0.01 µM (active) | < 0.01 µM (active) | < 0.0137 µM (active) | < 0.01 µM (active) | 0.272 µM (active)
7 | CC(=O)Nc1cc2nc3n(c2cc1C)CCC3OC(C)=O (stereo not drawn) | > 100 µM (inactive) | > 100 µM (inactive) | > 100 µM (inactive) | > 100 µM (inactive) | > 100 | > 100 µM (inactive) | > 100 µM (inactive) | > 100 µM (inactive) | > 100 µM (inactive) | > 100 µM (inactive) | > 100 µM (inactive) | > 100 µM (inactive) | > 100 µM (inactive) | > 100 µM (inactive) | > 100 µM (inactive) | > 100 µM (inactive) |  | > 100 µM (inactive) | > 100 µM (inactive) | > 100 µM (inactive)
